{
  "source": "patent US9034922B2",
  "about": "“Composition for maintaining function of platelets” (THE UNIVERSITY OF TOKYO, priority 2010, dated 2015)",
  "type_in_all_cases": "biochemical",
  "key": {"[1]": {"biological_target": "T1, Matrix metalloproteinase 1 (MMP-1) (Homo sapiens, UniProt P03956)", "T1 construct": "purchased Calbiochem 444208", "T1 sequence (P03956 100-469)": "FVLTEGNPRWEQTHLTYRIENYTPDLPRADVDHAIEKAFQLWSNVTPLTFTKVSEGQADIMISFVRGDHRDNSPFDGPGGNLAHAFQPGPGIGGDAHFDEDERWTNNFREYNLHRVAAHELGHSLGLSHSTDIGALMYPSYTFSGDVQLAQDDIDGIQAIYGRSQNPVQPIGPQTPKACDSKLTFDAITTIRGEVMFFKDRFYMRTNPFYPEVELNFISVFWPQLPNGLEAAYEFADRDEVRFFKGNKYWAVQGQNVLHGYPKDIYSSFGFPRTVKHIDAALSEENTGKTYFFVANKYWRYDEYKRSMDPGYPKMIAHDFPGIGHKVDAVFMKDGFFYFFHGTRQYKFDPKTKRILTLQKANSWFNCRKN", "assay": "Enzyme inhibition experiment, MMP-1", "conditions": "444221 substrate, 37° C., 5 hours", "experimental": "(§1) The enzyme reaction was carried out using the enzymes and substrates. Specifically, if necessary, the enzyme was activated in advance with APMA (final concentration 1 mmol/L, p-aminophenylmercuric acetate, manufactured by Sigma-Aldrich Co., A9563) according to information from the manufacturer. Then, in a 96-well plate for fluorescence measurement, 90 μL of an enzyme solution prepared with Assay Buffer A (50 mmol/L Tris-HCl buffer (pH 7.5) containing 200 mmol/L sodium chloride, 5 mmol/L calcium chloride, 10 μmol/L zinc sulfate, and 2 mg/mL bovine serum albumin) was mixed with 90 μL of the substrate adjusted to be 20 μmol/L with Assay Buffer B (50 mmol/L Tris-HCl buffer (pH 7.5) containing 200 mmol/L sodium chloride, 5 mmol/L calcium chloride, 10 μmol/L zinc sulfate, and 0.05% PLURONIC F-68), and incubated for reaction at 25° C. or 37° C. for several hours. Moreover, the fluorescence intensities before and after the reaction were measured using a fluorometer to determine the enzyme activity. An inhibition rate was obtained based on the enzyme activities in the presence and absence of the test substances, and the 50% inhibitory concentration (IC50) was calculated."}, "[2]": {"biological_target": "T2, Matrix metalloproteinase 3 (MMP-3) (Homo sapiens, UniProt P08254)", "T2 construct": "purchased Calbiochem 444217", "T2 sequence (P08254 100-272 limits assumed)": "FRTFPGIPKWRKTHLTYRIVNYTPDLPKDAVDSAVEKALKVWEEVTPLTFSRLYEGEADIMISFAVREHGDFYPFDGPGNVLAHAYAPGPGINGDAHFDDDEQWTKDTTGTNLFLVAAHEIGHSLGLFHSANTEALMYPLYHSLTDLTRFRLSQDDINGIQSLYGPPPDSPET", "assay": "Enzyme inhibition experiment, MMP-3", "conditions": "3168 substrate, 37° C., 4 hours", "experimental": "Matrix metalloproteinase 3 (MMP-3) (manufactured by Calbiochem, product number: 444217)\n(§2) 3168 substrate (MOCAc-Arg-Pro-Lys-Pro-Val-Glu-Nva-Trp-Arg-Lys(Dnp)-NH2, manufactured by Peptide Institute, Inc.): excitation wavelength at 320 nm, emission wavelength at 405 nm, and 3163 substrate (MOCAc-Pro-Leu-Gly-Leu-A2pr(Dnp)-Ala-Arg-NH2, manufactured by Peptide Institute, Inc.): excitation wavelength at 320 nm, emission wavelength at 405 nm.\nas §1"}, "[3]": {"biological_target": "T3, Matrix metalloproteinase 9 (MMP-9) (Homo sapiens, UniProt P14780)", "T3 construct": "purchased Calbiochem 444231", "T3 sequence (P14780 94-707)": "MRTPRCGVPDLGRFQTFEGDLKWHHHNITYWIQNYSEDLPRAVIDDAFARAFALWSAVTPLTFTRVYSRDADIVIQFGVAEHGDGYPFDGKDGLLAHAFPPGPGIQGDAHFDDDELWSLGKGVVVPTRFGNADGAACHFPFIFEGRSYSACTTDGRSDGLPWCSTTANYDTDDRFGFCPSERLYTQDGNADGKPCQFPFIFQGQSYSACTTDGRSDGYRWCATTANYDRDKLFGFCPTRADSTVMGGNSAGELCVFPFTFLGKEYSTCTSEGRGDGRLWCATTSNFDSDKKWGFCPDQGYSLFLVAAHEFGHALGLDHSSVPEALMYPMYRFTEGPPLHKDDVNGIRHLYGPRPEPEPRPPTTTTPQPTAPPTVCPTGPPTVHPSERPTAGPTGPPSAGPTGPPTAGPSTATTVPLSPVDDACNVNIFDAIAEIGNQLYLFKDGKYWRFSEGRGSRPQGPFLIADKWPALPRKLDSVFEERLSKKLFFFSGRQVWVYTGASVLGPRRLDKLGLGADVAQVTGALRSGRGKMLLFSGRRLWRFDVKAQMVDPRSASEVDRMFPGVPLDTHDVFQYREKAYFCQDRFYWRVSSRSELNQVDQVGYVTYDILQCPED", "assay": "Enzyme inhibition experiment, MMP-9", "conditions": "444221 substrate, 37° C., 4 hours", "experimental": "as §1, with “activity.” for “activity. An inhibition rate was obtained based on the enzyme activities in the presence and absence of the test substances, and the 50% inhibitory concentration (IC50) was calculated.”"}, "[4]": {"biological_target": "T4, Matrix metalloproteinase 13 (MMP-13) (Homo sapiens, UniProt P45452)", "T4 construct": "purchased Chemicon CC068", "assay": "Enzyme inhibition experiment, MMP-13", "conditions": "444221 substrate, 37° C., 4 hours", "experimental": "Matrix metalloproteinase 13 (MMP-13) (manufactured by Chemicon, product number: CC068)\nas §1, with “activity.” for “activity. An inhibition rate was obtained based on the enzyme activities in the presence and absence of the test substances, and the 50% inhibitory concentration (IC50) was calculated.”"}, "[5]": {"biological_target": "T5, Matrix metalloproteinase 17 (MMP-17) (Homo sapiens, UniProt Q9ULZ9)", "T5 construct": "purchased Calbiochem 475940", "T5 sequence (Q9ULZ9 126-298 limits assumed)": "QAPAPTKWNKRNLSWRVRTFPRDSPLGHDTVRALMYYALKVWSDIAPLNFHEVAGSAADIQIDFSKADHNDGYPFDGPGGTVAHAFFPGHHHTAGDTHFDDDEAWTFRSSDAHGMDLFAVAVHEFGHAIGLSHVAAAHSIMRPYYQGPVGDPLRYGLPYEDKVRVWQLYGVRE", "assay": "Enzyme inhibition experiment, MMP-17", "conditions": "3163 substrate, 25° C., 5 hours", "experimental": "Matrix metalloproteinase 17 (MMP-17) (manufactured by Calbiochem, product number: 475940)\nas §2, §1"}},
  "data": [
    {"smiles": "CC#CCOc1ccc(S(=O)(=O)CC(c2ccc(CN(CC)CC)cc2)N(O)C=O)cc1", "note": "(stereo not shown) [Compound I-1, N-[2-(4-But-2-ynyloxybenzenesulfonyl)-1-(4-diethylaminomethylphenyl)ethyl]-N-hydroxyformamide]", "values": [
      {"measurement": "IC50", "setting": "[1]", "value": "> 100", "unit": "µM"},
      {"measurement": "IC50", "setting": "[2]", "value": 8.3, "unit": "µM"},
      {"measurement": "IC50", "setting": "[3]", "value": 11, "unit": "µM"},
      {"measurement": "IC50", "setting": "[4]", "value": 0.55, "unit": "µM"},
      {"measurement": "IC50", "setting": "[5]", "value": 2.8, "unit": "µM"}
    ]},
    {"smiles": "CC#CCOc1ccc(S(=O)(=O)CC(c2ccc(CNS(C)(=O)=O)cc2)N(O)C=O)cc1", "note": "(stereo not shown) [Compound I-4, N-{4-[2-(4-But-2-ynyloxybenzenesulfonyl)-1-(formylhydroxyamino)ethyl]benzyl}methanesulfonamide]", "values": [
      {"measurement": "IC50", "setting": "[1]", "value": "> 100", "unit": "µM"},
      {"measurement": "IC50", "setting": "[2]", "value": 6.5, "unit": "µM"},
      {"measurement": "IC50", "setting": "[3]", "value": 11, "unit": "µM"},
      {"measurement": "IC50", "setting": "[4]", "value": 0.7, "unit": "µM"},
      {"measurement": "IC50", "setting": "[5]", "value": 3.4, "unit": "µM"}
    ]}
  ]
}
